Assay results published in US7507717B2 (Xenome Ltd., priority 2002, dated 2009).
pIC50: −log10 of the molar value. Residues, ends and D or L forms follow the SMILES beside them.

The molecules below were run against T1, human noradrenaline transporter (hNET) (Homo sapiens, UniProt P23975) (assay: biochemical). Details: Av IC50 Displacement of 3H-nisoxetine from hNET.
T1 construct: expressed in transfected cells; host or cells: COS-7 cells (ATCC), transient transfection with metafectene
T1 sequence (P23975 whole entry): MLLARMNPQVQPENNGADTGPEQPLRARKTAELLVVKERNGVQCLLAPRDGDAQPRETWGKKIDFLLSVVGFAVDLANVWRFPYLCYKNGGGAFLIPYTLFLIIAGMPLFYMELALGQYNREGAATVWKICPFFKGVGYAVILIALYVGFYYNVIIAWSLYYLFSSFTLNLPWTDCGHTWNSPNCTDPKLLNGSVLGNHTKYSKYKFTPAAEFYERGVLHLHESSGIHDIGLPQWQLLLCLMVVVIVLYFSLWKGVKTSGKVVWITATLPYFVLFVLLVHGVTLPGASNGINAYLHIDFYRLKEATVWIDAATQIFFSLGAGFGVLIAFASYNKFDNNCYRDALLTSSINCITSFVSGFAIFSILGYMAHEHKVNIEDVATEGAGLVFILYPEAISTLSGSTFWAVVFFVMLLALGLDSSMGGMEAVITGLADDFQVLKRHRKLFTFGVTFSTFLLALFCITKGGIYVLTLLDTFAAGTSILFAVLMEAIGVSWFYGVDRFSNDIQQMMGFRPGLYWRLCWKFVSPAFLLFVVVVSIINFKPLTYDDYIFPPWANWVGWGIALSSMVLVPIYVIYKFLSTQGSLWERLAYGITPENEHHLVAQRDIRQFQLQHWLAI
Assay type: binding
For `CC(C)C[C@@H]1NC(=O)[C@H](CCCCN)NC(=O)[C@H](Cc2ccc(O)cc2)NC(=O)CNC(=O)[C@@H]2CSSC[C@H](NC1=O)C(=O)N[C@@H](Cc1c[nH]cn1)C(=O)N1CCC[C@H]1C(=O)N[C@H](C(N)=O)CSSC[C@H](NC(=O)[C@@H](NC(=O)[C@H](CCCCN)NC(=O)[C@H](CC(N)=O)NC(=O)[C@@H](N)Cc1ccc(O)cc1)C(C)C)C(=O)N2` [compound 110] (HELM PEPTIDE1{Y.N.K.V.C.C.G.Y.K.L.C.H.P.C.[am]}$PEPTIDE1,PEPTIDE1,5:R3-14:R3|PEPTIDE1,PEPTIDE1,6:R3-11:R3$$$V2.0), the pIC50 was 6.01. `CC(C)C[C@@H]1NC(=O)[C@H](CCCCN)NC(=O)[C@H](Cc2ccc(O)cc2)NC(=O)CNC(=O)[C@@H]2CSSC[C@H](NC1=O)C(=O)N[C@@H](CCCNC(=N)N)C(=O)N1CCC[C@H]1C(=O)N[C@H](C(N)=O)CSSC[C@H](NC(=O)[C@@H](NC(=O)CNC(=O)[C@H](CC(N)=O)NC(=O)[C@@H](N)Cc1ccc(O)cc1)C(C)C)C(=O)N2` [compound 84] showed a pIC50 of 6.52. For `CC(C)C[C@@H]1NC(=O)[C@H](CCCCN)NC(=O)[C@H](Cc2ccc(O)cc2)NC(=O)CNC(=O)[C@@H]2CSSC[C@H](NC1=O)C(=O)N[C@@H](Cc1c[nH]cn1)C(=O)N1CCC[C@H]1C(=O)N[C@H](C(N)=O)CSSC[C@H](NC(=O)[C@@H](NC(=O)CNC(=O)[C@@H](N)CCCNC(=N)N)C(C)C)C(=O)N2` [compound 98], the pIC50 was 6.29. In the case of `CC(C)C[C@@H]1NC(=O)[C@H](CCCCN)NC(=O)[C@H](Cc2ccc(O)cc2)NC(=O)CNC(=O)[C@@H]2CSSC[C@H](NC1=O)C(=O)N[C@@H](CCC(N)=O)C(=O)N1CCC[C@H]1C(=O)N[C@H](C(N)=O)CSSC[C@H](NC(=O)[C@@H](NC(=O)CNC(=O)[C@H](CC(N)=O)NC(=O)[C@@H](N)Cc1ccc(O)cc1)C(C)C)C(=O)N2` [compound 163] (HELM PEPTIDE1{Y.N.G.V.C.C.G.Y.K.L.C.Q.P.C.[am]}$PEPTIDE1,PEPTIDE1,5:R3-14:R3|PEPTIDE1,PEPTIDE1,6:R3-11:R3$$$V2.0), the pIC50 was 5.16. In the case of `CC[C@H](C)[C@H](NC(=O)CNC(=O)[C@@H](N)CC(N)=O)C(=O)N[C@H]1CSSC[C@@H](C(N)=O)NC(=O)[C@@H]2CCCN2C(=O)[C@H](Cc2c[nH]cn2)NC(=O)[C@@H]2CSSC[C@H](NC1=O)C(=O)NCC(=O)N[C@@H](Cc1ccc(O)cc1)C(=O)N[C@@H](CCCCN)C(=O)N[C@@H](CC(C)C)C(=O)N2` [compound 125] (HELM PEPTIDE1{N.G.I.C.C.G.Y.K.L.C.H.P.C.[am]}$PEPTIDE1,PEPTIDE1,4:R3-13:R3|PEPTIDE1,PEPTIDE1,5:R3-10:R3$$$V2.0), the pIC50 was 5.85. With `CC(C)C[C@@H]1NC(=O)[C@H](CCCCN)NC(=O)[C@H](Cc2ccc(O)cc2)NC(=O)CNC(=O)[C@@H]2CSSC[C@H](NC1=O)C(=O)N[C@@H](CCCNC(=N)N)C(=O)N[C@@H](C)C(=O)N[C@H](C(N)=O)CSSC[C@H](NC(=O)[C@@H](NC(=O)CNC(=O)[C@H](CCCNC(=N)N)NC(=O)[C@@H](N)Cc1c[nH]c3ccccc13)C(C)C)C(=O)N2` [compound 38] the pIC50 was 6.99. With `CC(C)C[C@@H]1NC(=O)[C@H](CCCCN)NC(=O)[C@H](Cc2ccc(O)cc2)NC(=O)CNC(=O)[C@@H]2CSSC[C@H](NC1=O)C(=O)N[C@@H](CCCNC(=N)N)C(=O)N[C@@H](C)C(=O)N[C@H](C(N)=O)CSSC[C@H](NC(=O)[C@@H](NC(=O)CNC(=O)[C@H](CC(N)=O)NC(=O)[C@@H](N)Cc1c[nH]c3ccccc13)C(C)C)C(=O)N2` [compound 69] (HELM PEPTIDE1{W.N.G.V.C.C.G.Y.K.L.C.R.A.C.[am]}$PEPTIDE1,PEPTIDE1,5:R3-14:R3|PEPTIDE1,PEPTIDE1,6:R3-11:R3$$$V2.0) the pIC50 was 6.66. In the case of `CC(C)C[C@@H]1NC(=O)[C@H](CCCCN)NC(=O)[C@H](Cc2ccc(O)cc2)NC(=O)CNC(=O)[C@@H]2CSSC[C@H](NC1=O)C(=O)N[C@@H](Cc1c[nH]cn1)C(=O)N1CCC[C@H]1C(=O)N[C@H](C(N)=O)CSSC[C@H](NC(=O)[C@@H](NC(=O)CNC(=O)[C@H](CC(N)=O)NC(=O)[C@@H](N)Cc1ccc(O)cc1)C(C)C)C(=O)N2` [compound 116], the pIC50 was 5.95. `CC(C)C[C@@H]1NC(=O)[C@H](CCCCN)NC(=O)[C@H](Cc2ccc(O)cc2)NC(=O)CNC(=O)[C@@H]2CSSC[C@H](NC1=O)C(=O)N[C@@H](Cc1c[nH]cn1)C(=O)N[C@@H](C)C(=O)N[C@H](C(N)=O)CSSC[C@H](NC(=O)[C@@H](NC(=O)CNC(=O)[C@@H](N)CC(N)=O)C(C)C)C(=O)N2` [compound 145] (HELM PEPTIDE1{N.G.V.C.C.G.Y.K.L.C.H.A.C.[am]}$PEPTIDE1,PEPTIDE1,4:R3-13:R3|PEPTIDE1,PEPTIDE1,5:R3-10:R3$$$V2.0) gave a pIC50 of 5.53. `CC(C)C[C@@H]1NC(=O)[C@H](CCCCN)NC(=O)[C@H](Cc2ccc(O)cc2)NC(=O)CNC(=O)[C@@H]2CSSC[C@H](NC1=O)C(=O)N[C@@H](Cc1c[nH]cn1)C(=O)N1CCC[C@H]1C(=O)N[C@H](C(N)=O)CSSC[C@H](NC(=O)[C@@H](NC(=O)[C@H](CO)NC(=O)[C@@H](N)CC(N)=O)C(C)C)C(=O)N2` [compound 156] (HELM PEPTIDE1{N.S.V.C.C.G.Y.K.L.C.H.P.C.[am]}$PEPTIDE1,PEPTIDE1,4:R3-13:R3|PEPTIDE1,PEPTIDE1,5:R3-10:R3$$$V2.0) gave a pIC50 of 5.37. `CC(C)C[C@@H]1NC(=O)[C@H](CCCCN)NC(=O)[C@H](Cc2ccc(O)cc2)NC(=O)CNC(=O)[C@@H]2CSSC[C@H](NC1=O)C(=O)N[C@@H](Cc1c[nH]cn1)C(=O)N[C@@H](Cc1ccc(O)cc1)C(=O)N[C@H](C(N)=O)CSSC[C@H](NC(=O)[C@@H](NC(=O)CNC(=O)[C@@H](N)CC(N)=O)C(C)C)C(=O)N2` [compound 165] showed a pIC50 of 5.15.
